The nature of the data set: Human HepG2 cell viability assay in 384 well format. Set-up: dose 125 nL, time 70.5 hour; concentration not given beside the values. The following applies: HepG2 cells, read-out: Inhibition. It counts as toxicity, cell-based.

On to `Cc1nc(-c2ccco2)ccc1C(=O)N1CCc2nnc(N)cc2C1`, for which the cytotoxicity at 70.5 h was -1.99%. In the case of `CCc1nnsc1C(=O)NC1CCN(CCOc2ccc(Br)cc2)CC1`, the cytotoxicity at 70.5 h was -4.31%. The value for `Cc1nsc(N2CCN(C(=O)Nc3cccc(C#N)c3)CC2)n1` was -0.0722%; that for `Cc1nc(-c2ccccc2)sc1CSCCC(N)=O` was 12.1%; that for `CC(=O)Nc1ccc(F)c(S(=O)(=O)NC(C)(C)C)c1` was -6.2%. `CCN1CCC2(CC1)CC(CC(=O)N(C)C)c1ccc(F)cc12` (stereo not given): the cytotoxicity at 70.5 h is 33.5%. `CN1CCN(Cc2cn3c(n2)CN(Cc2ccncc2)CC3)CC1`: the cytotoxicity at 70.5 h came to 14%. For `O=C(Cc1ccsc1)N1C[C@H]2CCC[C@@]2(COCc2ccccn2)C1`, the cytotoxicity at 70.5 h worked out at 10.5%.

In the case of `COCc1cnc2n1CCN(C(=O)c1cn(C)c3ccccc13)C2C` (stereo not given), the cytotoxicity at 70.5 h was -5.93%.

With `O=C(CC1CC2(CCNCC2)c2ccccc21)NCC1CC1` (stereo not given), the cytotoxicity at 70.5 h worked out at 11.3%.

As for `Cn1cc(CNC2CCc3c(ccc(=O)n3C)C2)cn1` (stereo not given), the cytotoxicity at 70.5 h is -2.72%.

For the compound `CC(C)OC[C@H]1CCC[C@]12CN(C(=O)C1CCOCC1)CCO2`, the cytotoxicity at 70.5 h was -8.49%. Consider `COC[C@@H]1CCC[C@@]12CN(C(=O)N1CCCC1)CCO2`, for which the cytotoxicity at 70.5 h is -12.3%.

As for `CC(=O)NCc1nnn2c1CN(c1ncccn1)CCC2`, the cytotoxicity at 70.5 h was -7.48%. Turning to `O=C(C1CCOCC1)N1C[C@H]2CCC[C@@]2(COCc2ccccn2)C1`, the cytotoxicity at 70.5 h is -10.2%. Consider `Cc1ccc(CNC(=O)c2nc3c(n2C)CCN(c2ncccn2)C3)o1`, for which the cytotoxicity at 70.5 h is -1.28%. Consider `COc1nn(C)c2c1CCCN(C(=O)c1cscn1)C2`, for which the cytotoxicity at 70.5 h stood at 2.23%. Turning to `COc1nn(C)c2c1CCCN(C(=O)c1cnccn1)C2`, the cytotoxicity at 70.5 h was 1.47%. The value for `COCC(=O)NCc1cc(=O)n2c(n1)CN(Cc1ccncc1)CCC2` was -0.67%; that for `O=C(C1CCOCC1)N1CC[C@H](O)[C@@H]1Cc1cccnc1` was -0.0587%. The value for `CN1CCC2(CCN(C(=O)c3cccnc3)C2)C1` (stereo not given) was 0.955%; that for `O=C(C1=CCCC1)N1C[C@@H]2COC[C@]2(COCc2ccncc2)C1` was -3.75%; that for `COCCNC(=O)[C@H]1CO[C@H]2CCN(Cc3cccs3)C[C@H]2C1` was -1.82%.

With `c1ccc(CO[C@@H]2CN(Cc3ccoc3)[C@@H]3COC[C@@H]32)nc1`, the cytotoxicity at 70.5 h stood at 13%. Then `O=C(c1ccncc1)N1CCC2(CC1)CCN(C(=O)c1cccnc1)C2`, with -7.65%; and `CCO[C@H]1CC[C@H]2[C@@H]1OCCN2C(=O)COc1ccccc1`, with 27.1%. On to `CS(=O)(=O)NC[C@]12COC[C@H]1CN(C(=O)C1CC(F)(F)C1)C2`, for which the cytotoxicity at 70.5 h is -2.39%. The value for `Cc1cnc(N2CCc3c(c(COc4cncnc4)nn3C)C2)nc1` was -6.03%; that for `CN(Cc1cncnc1)[C@H]1CN(C(=O)c2ccco2)[C@@H]2CCCO[C@@H]21` was -10.9%; that for `CN(Cc1cncnc1)[C@H]1CN(C(=O)c2ccc[nH]2)[C@@H]2CCCO[C@@H]21` was -8.37%. For the compound `CS(=O)(=O)NC[C@]12COC[C@H]1CN(C(=O)C1CC=CC1)C2`, the cytotoxicity at 70.5 h is -3.37%.

For the compound `CNC(=O)[C@@H]1C[C@@H]2CCN(Cc3ccoc3)C[C@H]2O1`, the cytotoxicity at 70.5 h is -6.85%. For the compound `O=C(c1cscn1)N1CC[C@H]2C[C@H](c3nnc(C4CC4)o3)O[C@@H]2C1`, the cytotoxicity at 70.5 h is -10.6%. Take `CCOCCn1c(=O)[nH]c2cc(C(=O)N(C)Cc3cnn(C)c3)ccc21`: the cytotoxicity at 70.5 h is -4.48%. As for `CSc1nccc(N2CCC3(CCCN(Cc4ccc(F)cc4)C3)C2)n1` (stereo not given), the cytotoxicity at 70.5 h was -3.25%. With `CNc1nc(C(=O)N2CCCC(COc3ccc(F)cc3)C2)cs1` (stereo not given), the cytotoxicity at 70.5 h was determined as 3.44%. `O=C(c1onc2ccccc12)N1CCC2(CCCNC2)C1` (stereo not given): the cytotoxicity at 70.5 h was -16.6%.

Turning to `CN(Cc1csc(-c2cccs2)n1)Cc1cccnc1N`, the cytotoxicity at 70.5 h is -14.6%. Take `COCCN(Cc1ccc(C)cc1)CC1CCOC1` (stereo not given): the cytotoxicity at 70.5 h was -5.9%. As for `CCn1cnnc1CN(C)Cc1nc(-c2cc(OC)ccc2F)oc1C`, the cytotoxicity at 70.5 h was -6.85%.

For `CCCn1nc(C)c2c1NC(=O)CC2c1ccc(CN2CCCC2)s1` (stereo not given), the cytotoxicity at 70.5 h is -9.08%. Consider `CCc1cnc(C)nc1NCCSc1nnc(C)n1CC`, for which the cytotoxicity at 70.5 h worked out at 0.501%.

Regarding `Cn1c(Cn2ccnc2)nnc1C1CCCN(Cc2ccncc2)C1` (stereo not given), the cytotoxicity at 70.5 h was 14%.

On to `CCC(NC(=O)CCNC(=O)c1ccccc1F)c1cc(C)ccn1` (stereo not given), for which the cytotoxicity at 70.5 h was -0.798%. Take `CCCN(Cc1ccc(C(=O)NCC2COCCO2)c(=O)[nH]1)C1CC1` (stereo not given): the cytotoxicity at 70.5 h was found to be 50.6%.

For `CN1CC2(CCCN(CCOCc3ccccc3)C2)OC1=O` (stereo not given), the cytotoxicity at 70.5 h is -3.02%.

Turning to `CC(C)[C@@H]1CN(C(=O)CCn2ccccc2=O)C[C@H]1NS(C)(=O)=O`, the cytotoxicity at 70.5 h is -7.19%. For the compound `COc1ncccc1-c1cc(C(N)=O)ccn1`, the cytotoxicity at 70.5 h was 19.5%. Take `Cc1ccc2nc(C)cc(C(=O)N3C[C@H]4CCC[C@@]4(CO)C3)c2c1`: the cytotoxicity at 70.5 h is -6.32%. Consider `CN1CCC(Cc2nc(-c3cnccn3)n(Cc3ccccc3)n2)CC1`, for which the cytotoxicity at 70.5 h is -4.63%. Turning to `Cc1ncccc1Oc1ncnc(N2CCCC(O)(CO)CC2)c1C` (stereo not given), the cytotoxicity at 70.5 h is -16.4%. For `O=C(c1ccc[nH]1)N1CCc2ccc(S(=O)(=O)N3CCOCC3)cc2C1`, the cytotoxicity at 70.5 h was found to be 3.25%. For the compound `COC(=O)[C@@H]1CCCN1C(=O)c1cn(C/C=C/c2ccccc2)nn1`, the cytotoxicity at 70.5 h worked out at 24.7%. Consider `O=C(c1cccc(Cl)c1)N1CC[C@@H](N2CCC(O)CC2)[C@H](O)C1`, for which the cytotoxicity at 70.5 h came out at 16%.

For `Cc1cc(N2CCC3(CCCN(CCO)C3=O)C2)nc(C)c1C#N` (stereo not given), the cytotoxicity at 70.5 h is -18.8%. The value for `Cc1cc(C(=O)N2CCCC(Cn3cc(C4CC4)nn3)C2)nc(C)n1` (stereo not given) was -13.2%; that for `c1ccc(CCCN2CCN(CCn3cncn3)CC2)cc1` was -3.65%; that for `CN(CC1=CCCN(Cc2cccc(C#N)c2)C1)C(=O)c1ccco1` was -12.2%. Regarding `Cc1noc(C)c1CN(C)C(=O)CN1CC(c2ccccc2)CC1=O` (stereo not given), the cytotoxicity at 70.5 h was -6.3%. In the case of `Cc1cc(Cl)ccc1C(=O)N[C@H]1CN(S(C)(=O)=O)C[C@@H]1C1CC1`, the cytotoxicity at 70.5 h was -0.333%. On to `CCOCc1nc(-c2ccc(F)cc2Cl)n(C2CCN(C)CC2)n1`, for which the cytotoxicity at 70.5 h is -17.9%. For the compound `CCCN1CCCn2nc(CNC(=O)CCOC)cc2C1`, the cytotoxicity at 70.5 h was -4.33%.

Consider `COCC(NC1CSCCSC1)c1ccnn1C` (stereo not given), for which the cytotoxicity at 70.5 h was -13.2%.

On to `CCc1cc(NCCNC(C)=O)nc(N2CCCC2)n1`, for which the cytotoxicity at 70.5 h was 23.3%.

For the compound `CCCn1cnnc1CNC(=O)C1COc2cc(OC)ccc2C1` (stereo not given), the cytotoxicity at 70.5 h was found to be 18.3%. For `CN(C)CCn1ccnc1C1CCCN(c2ncc(Cl)cc2F)C1` (stereo not given), the cytotoxicity at 70.5 h is -3.65%. `Cc1cc(C(F)(F)F)nc(CCNC(C)Cn2cncn2)n1` (stereo not given): the cytotoxicity at 70.5 h is -11.4%. On to `CCn1cc(CN2CCC(CN3CCCCC3)CC2)cc1C#N`, for which the cytotoxicity at 70.5 h turned out to be 4.33%. As to `CN1CCN(CCc2ncnn2-c2ccc3c(c2)OCO3)CC1`, the cytotoxicity at 70.5 h worked out at 22%. Turning to `Cc1nc[nH]c1C(=O)N1CCC2(CC1)CN(CCN(C)C)C(=O)O2`, the cytotoxicity at 70.5 h was -6.22%. With `Cc1nccn1-c1ccc(NC(=O)C2CCCN2Cc2ccoc2)cc1` (stereo not given), the cytotoxicity at 70.5 h is -6.93%. For `Cc1nc2c(C)cccc2cc1C(=O)N1CCC2(CCN(C)CC2)C1`, the cytotoxicity at 70.5 h was determined as 3.12%. Consider `CCc1cnc(C)nc1NC(C)C(=O)Nc1cc(F)ccc1C` (stereo not given), for which the cytotoxicity at 70.5 h was found to be 22.4%. Regarding `O=C(CSCC1CC1)N1CCCC2(CCC(=O)N(CC3CC3)C2)C1` (stereo not given), the cytotoxicity at 70.5 h was -25.9%. Regarding `Cc1nn2cc(CCNC(=O)c3cc(C(C)C)no3)nc2s1`, the cytotoxicity at 70.5 h turned out to be 12.6%. Regarding `c1cncc(COC[C@@H]2CCC[C@@]23CNCCO3)c1`, the cytotoxicity at 70.5 h turned out to be 8.38%. As to `CCOC1COC2(CCN(CC3CC3)CC2)C1` (stereo not given), the cytotoxicity at 70.5 h amounted to 11.6%. As for `Cc1cccc(CN2C[C@@H]3COC[C@]3(CNC(=O)C3CCC3)C2)c1`, the cytotoxicity at 70.5 h was -7.15%.

With `CS(=O)(=O)N1CCC2(CC1)CC(NCc1ccco1)c1ccccc12` (stereo not given), the cytotoxicity at 70.5 h is -1.03%. As to `CC(C)C(=O)NC1CC2(CCN(CC(=O)N(C)C)CC2)c2ccccc21` (stereo not given), the cytotoxicity at 70.5 h is -2.53%. Then `COCC(=O)NCc1cc(=O)n2c(n1)CN(C)CCC2`, with -3.22%. Turning to `FC1(F)CCN(Cc2ccccn2)CC12CCN(c1ncccn1)C2` (stereo not given), the cytotoxicity at 70.5 h was -7.15%. On to `COc1nn(C)c2c1CCCN(C(=O)c1cccc(C)n1)C2`, for which the cytotoxicity at 70.5 h was -2.8%. Consider `CCC1=N[C@@]2(CC[C@@H]3CN(Cc4ccc(C)cc4)C[C@@H]32)C(=O)N1C`, for which the cytotoxicity at 70.5 h is -2.71%. Turning to `O=C(NCc1cccs1)[C@H]1CO[C@H]2CCN(C3CCCC3)C[C@H]2C1`, the cytotoxicity at 70.5 h is 4.95%. With `Cn1cccc1C(=O)N1CC2(CCN(C(=O)c3cccnc3)C2)C1`, the cytotoxicity at 70.5 h is -7.36%. Turning to `O=C(c1cc(C2CC2)on1)N1C[C@@H]2COC[C@]2(COc2cccnc2)C1`, the cytotoxicity at 70.5 h is -4%. With `CN1C[C@H](NC(=O)c2cscn2)[C@@H]2OCCC[C@@H]21`, the cytotoxicity at 70.5 h is -6.86%.

In the case of `COCCN1CCC2(COCc3cnc(-c4ccccc4)nc32)C1` (stereo not given), the cytotoxicity at 70.5 h is -8.87%.

On to `Cn1nc(C(=O)N2CCOCC2)c2c1CN(CC1CC1)C2`, for which the cytotoxicity at 70.5 h is -3.11%. As to `CN(C)CCO[C@H]1CN(Cc2ccco2)[C@@H]2COC[C@H]12`, the cytotoxicity at 70.5 h was -3.7%.

`CN(C)C(=O)CN1CCC2(COCc3cnc(-c4cccnc4)nc32)C1` (stereo not given): the cytotoxicity at 70.5 h is -5.78%.

In the case of `O=C1COC2(CCN(Cc3cccnc3)CC2)CN1c1ccccc1`, the cytotoxicity at 70.5 h was -8.85%. On to `c1cc(CO[C@@H]2CN(Cc3ccoc3)[C@@H]3CCCO[C@@H]32)ccn1`, for which the cytotoxicity at 70.5 h is -16%.

On to `Cc1cccc(CN2CCO[C@H]3[C@@H](OCc4ccncc4)CC[C@@H]32)n1`, for which the cytotoxicity at 70.5 h was -7.09%.

Values taken from ChEMBL document CHEMBL3507680, “University of Dundee, Gates Library screen for HepG2 cell viability”.
